The conditions of the data set: for aqueous solubility: pH 6.8.

≈ marks a conversion by molar mass, not a printed value. Non-standard residues stand in square brackets, D forms with d. Residues, ends and D or L forms follow the SMILES beside them. *: point of attachment. Fmoc = O=C(OCC1c2ccccc2-c2ccccc21)*; Cha = N[C@@H](CC1CCCCC1)C(=O)O; AMC = Cc1cc(=O)oc2cc(N*)ccc12

By aqueous solubility is commonly meant how much of the substance goes into solution per volume.

As for `C=CC(=O)N1CCC([C@@H]2CCNc3c(C(N)=O)c(-c4ccc(Oc5ccccc5)cc4)nn32)CC1`, the MDR1-MDCK efflux ratio was determined as 50.8; the fraction unbound, human plasma is 0.0931; the fraction unbound, rat plasma came to 0.0171; the intrinsic clearance, human liver microsomes was found to be 57.8 mL/min/kg. The intrinsic clearance, rat liver microsomes was found to be 573 mL/min/kg.

Regarding `COc1ccc2nc(C)nc(N3CC(O)(c4ccc(F)cc4)C3)c2c1`, the MDR1-MDCK efflux ratio stood at 3.87; the intrinsic clearance, human liver microsomes amounted to 26.9 mL/min/kg; the intrinsic clearance, rat liver microsomes came to 468 mL/min/kg; the aqueous solubility came out at 19.4 µg/mL (≈ 57.3 µM).

Regarding `COc1cccc(F)c1NC(=O)N1CCC(N2CC=CC2)CC1`, the MDR1-MDCK efflux ratio was 8.24; the intrinsic clearance, human liver microsomes is at most 4.74 mL/min/kg; the intrinsic clearance, rat liver microsomes turned out to be 363 mL/min/kg.

`COC(=O)c1cccc2c1CCCN2C(=O)c1ccc(F)cc1F`: the MDR1-MDCK efflux ratio was determined as 0.708; the intrinsic clearance, human liver microsomes came to 1150 mL/min/kg; the intrinsic clearance, rat liver microsomes is 2000 mL/min/kg.

For `COc1ccc(-c2nc(CC(N)=O)sc2C)cc1.Cl`, the MDR1-MDCK efflux ratio was found to be 0.246; the intrinsic clearance, human liver microsomes is 166 mL/min/kg; the intrinsic clearance, rat liver microsomes amounted to 111 mL/min/kg; the aqueous solubility was 30.3 µg/mL.

`O=C(NCC(F)(F)F)c1ccncc1` showed an aqueous solubility of 30.7 µg/mL (≈ 150 µM).

As to `Cc1cc(=O)oc2cc(NC(=O)[C@H](CCCCN)NC(=O)[C@H](CC3CCCCC3)NC(=O)OCC3c4ccccc4-c4ccccc43)ccc12` (Fmoc-[Cha]-Lys-{AMC}), the MDR1-MDCK efflux ratio was 1.11; the intrinsic clearance, human liver microsomes was at most 4.74 mL/min/kg; the intrinsic clearance, rat liver microsomes was at most 10.7 mL/min/kg.

Compound `CC(=O)N1CCC(c2ccc(C(=O)O)cn2)CC1` registered an intrinsic clearance, human liver microsomes of at most 4.74 mL/min/kg; an intrinsic clearance, rat liver microsomes of at most 10.7 mL/min/kg; an aqueous solubility of 50.6 µg/mL (≈ 204 µM).

For the compound `CCOCCC(=O)N1CCC2(CCCN(C)CC2)CC1`, the MDR1-MDCK efflux ratio was determined as 2.92; the intrinsic clearance, human liver microsomes was at most 4.74 mL/min/kg; the intrinsic clearance, rat liver microsomes is 30.6 mL/min/kg.

The compound `CCc1cc(NC(=O)Cc2c(C)nc3nc(SC)nn3c2C)[nH]n1` had an aqueous solubility of 15.8 µg/mL (≈ 45.8 µM).

On to `CC(=O)Nc1cc(CCC2CCNCC2)ccn1`, for which the MDR1-MDCK efflux ratio stood at 2.42; the intrinsic clearance, human liver microsomes is at most 4.74 mL/min/kg; the intrinsic clearance, rat liver microsomes is at most 10.7 mL/min/kg; the aqueous solubility was found to be 51 µg/mL (≈ 206 µM).

As for `CC1(C)[C@@H]2C[C@H]1[C@@]1(O)[C@@H](C2)Oc2c(ccc(O)c2C(=O)NCCc2ccccn2)[C@@H]1O`, the intrinsic clearance, human liver microsomes was 555 mL/min/kg and the intrinsic clearance, rat liver microsomes worked out at 910 mL/min/kg.

On to `O=C(c1ccc(F)cc1)N1CCN(CC(=O)N2CCCC2=O)CC1`, for which the MDR1-MDCK efflux ratio came to 10.4; the intrinsic clearance, human liver microsomes is at most 4.74 mL/min/kg; the intrinsic clearance, rat liver microsomes was determined as 14.1 mL/min/kg; the aqueous solubility stood at 94.8 µg/mL (≈ 284 µM).

Compound `O=C(Nc1ccc(C2CCCCC2)cc1)c1ccc(S(=O)(=O)NCc2cccnc2)cc1` had an intrinsic clearance, human liver microsomes of 194 mL/min/kg and an intrinsic clearance, rat liver microsomes of 604 mL/min/kg.

With `O=C(Cc1n[nH]c2ccccc12)N1CCCO1`, the MDR1-MDCK efflux ratio turned out to be 0.958; the intrinsic clearance, human liver microsomes is at most 4.74 mL/min/kg; the intrinsic clearance, rat liver microsomes was found to be 31.6 mL/min/kg.

Take `CCc1nnc(NC(=O)Cc2c(C)noc2C)s1`: the MDR1-MDCK efflux ratio came out at 12.8; the intrinsic clearance, human liver microsomes was at most 4.74 mL/min/kg; the intrinsic clearance, rat liver microsomes is at most 10.7 mL/min/kg; the aqueous solubility worked out at 44.6 µg/mL (≈ 167 µM).

`Cc1noc(C)c1CCC(=O)Nc1cccnc1`: the MDR1-MDCK efflux ratio worked out at 7.24; the intrinsic clearance, human liver microsomes was at most 4.74 mL/min/kg; the intrinsic clearance, rat liver microsomes stood at 32.1 mL/min/kg; the aqueous solubility was found to be 55.7 µg/mL (≈ 227 µM).

`CS(=O)(=O)N1CCC(Nc2ccc3ccc(F)cc3n2)CC1` returned an intrinsic clearance, human liver microsomes of 5.9 mL/min/kg; an intrinsic clearance, rat liver microsomes of 98 mL/min/kg; an aqueous solubility of 52.8 µg/mL (≈ 163 µM).

As to `CN(C)c1cccc(Cn2ccnc2-c2ccc(O)cc2)c1`, the MDR1-MDCK efflux ratio worked out at 3.77; the intrinsic clearance, human liver microsomes was 77.7 mL/min/kg; the intrinsic clearance, rat liver microsomes is 1040 mL/min/kg; the aqueous solubility was determined as 27.1 µg/mL (≈ 92.5 µM).

For `Cc1ccc(-c2noc(CCC(=O)N3CCCC3(C)C)n2)cc1F`, the MDR1-MDCK efflux ratio worked out at 0.535; the intrinsic clearance, human liver microsomes turned out to be 228 mL/min/kg; the intrinsic clearance, rat liver microsomes is 3380 mL/min/kg; the aqueous solubility is 40.8 µg/mL (≈ 123 µM).

As to `Cc1cc(C)n(-c2ccc(CNC(=O)C3CCC3)cn2)n1`, the MDR1-MDCK efflux ratio is 1.08; the intrinsic clearance, human liver microsomes was found to be 9.73 mL/min/kg; the intrinsic clearance, rat liver microsomes is 571 mL/min/kg; the aqueous solubility is 39.7 µg/mL (≈ 140 µM).

As to `COc1ccc(Cl)cc1C(=O)NCCc1ccc(S(=O)(=O)NC(=O)NC2CCCCC2)cc1`, the MDR1-MDCK efflux ratio was 123; the fraction unbound, human plasma amounted to 0.00121; the fraction unbound, rat plasma came to 0.00114; the intrinsic clearance, human liver microsomes turned out to be 28.7 mL/min/kg. This compound gave an intrinsic clearance, rat liver microsomes of 535 mL/min/kg.

`Cc1cccnc1NC(=O)c1csc(-c2ccccc2)n1` had an intrinsic clearance, human liver microsomes of 54 mL/min/kg; an intrinsic clearance, rat liver microsomes of 462 mL/min/kg; an aqueous solubility of 43.2 µg/mL (≈ 146 µM).

The compound `COc1cc(Nc2c(C#N)cnc3cc(OC)c(OC)cc23)c(Cl)cc1Cl` showed an intrinsic clearance, human liver microsomes of 161 mL/min/kg and an intrinsic clearance, rat liver microsomes of 443 mL/min/kg.

With `Cc1cn(-c2cc(NC(=O)c3ccc(C)c(Nc4nccc(-c5cccnc5)n4)c3)cc(C(F)(F)F)c2)cn1`, the MDR1-MDCK efflux ratio was 8.9.

In the case of `CN1C(N)=N[C@](C)(c2cc(NC(=O)c3ccc(F)cn3)ccc2F)CS1(=O)=O`, the MDR1-MDCK efflux ratio came out at 93.4; the fraction unbound, human plasma turned out to be 0.363; the fraction unbound, rat plasma was found to be 0.31; the intrinsic clearance, human liver microsomes was at most 4.74 mL/min/kg. The compound further returned an intrinsic clearance, rat liver microsomes of 82.3 mL/min/kg.

As to `CC(C(=O)N1CCc2sccc2C1)N1CCCN(c2ccccc2C#N)CC1` (stereo unspecified), the MDR1-MDCK efflux ratio worked out at 0.871; the intrinsic clearance, human liver microsomes came out at 2130 mL/min/kg; the intrinsic clearance, rat liver microsomes turned out to be 4230 mL/min/kg; the aqueous solubility amounted to 25.6 µg/mL (≈ 64.9 µM).

With `CC(=O)Nc1cccc(CN2CCCN(C(C)=O)c3ccccc32)c1`, the MDR1-MDCK efflux ratio came to 15.9; the intrinsic clearance, human liver microsomes is 139 mL/min/kg; the intrinsic clearance, rat liver microsomes was determined as 919 mL/min/kg; the aqueous solubility was 29.6 µg/mL (≈ 87.8 µM).

Regarding `O=C(Nc1cccc(-c2nncn2C2CC2)c1)c1cc(-n2cnc(C3CC3)c2)ccn1`, the MDR1-MDCK efflux ratio was 46.4; the fraction unbound, human plasma turned out to be 0.0183; the fraction unbound, rat plasma was 0.0409; the intrinsic clearance, human liver microsomes came out at 8.13 mL/min/kg. Besides, the intrinsic clearance, rat liver microsomes amounted to 37.4 mL/min/kg and the aqueous solubility amounted to 45 µg/mL (≈ 109 µM).

In the case of `CN1CCc2ncnc(N3CCCN(c4nccs4)CC3)c2C1`, the MDR1-MDCK efflux ratio was 4.76; the intrinsic clearance, human liver microsomes was 23.3 mL/min/kg; the intrinsic clearance, rat liver microsomes was found to be 131 mL/min/kg; the aqueous solubility was 43.2 µg/mL (≈ 131 µM).

`COc1cccc(O[C@H]2CCN(C(=O)c3cc(-c4ccc(F)cc4)on3)CC[C@@H]2O)c1`: the MDR1-MDCK efflux ratio is 0.882; the intrinsic clearance, human liver microsomes is 66.3 mL/min/kg; the intrinsic clearance, rat liver microsomes stood at 577 mL/min/kg.

Take `O=C(CCCc1nnc(-c2ccccc2)o1)Nc1cccc2ccccc12`: the MDR1-MDCK efflux ratio came out at 0.976; the intrinsic clearance, human liver microsomes amounted to 71.6 mL/min/kg; the intrinsic clearance, rat liver microsomes came to 1150 mL/min/kg; the aqueous solubility was 1.31 µg/mL (≈ 3.67 µM).

For the compound `CN(C)Cc1ccc(-c2ccccc2C(=O)O)cc1`, the intrinsic clearance, human liver microsomes was at most 4.74 mL/min/kg; the intrinsic clearance, rat liver microsomes is at most 10.7 mL/min/kg; the aqueous solubility is 30.5 µg/mL (≈ 119 µM).

For the compound `CC(C)n1nnnc1-c1ccc(N)cc1F`, the MDR1-MDCK efflux ratio turned out to be 0.63; the intrinsic clearance, human liver microsomes was at most 4.74 mL/min/kg; the intrinsic clearance, rat liver microsomes was 40.2 mL/min/kg; the aqueous solubility is 23.5 µg/mL (≈ 106 µM).

For the compound `COCC(=O)N1CC[C@H](c2nnc(-c3ccc(C)cc3)o2)C1`, the MDR1-MDCK efflux ratio was determined as 1.36; the intrinsic clearance, human liver microsomes was at most 4.74 mL/min/kg; the intrinsic clearance, rat liver microsomes was at most 10.7 mL/min/kg; the aqueous solubility was determined as 52.7 µg/mL (≈ 175 µM).

On to `CC(C)(C)c1cc(NS(=O)(=O)c2c(Cl)cccc2Cl)cc(C(C)(C)C)c1`, for which the intrinsic clearance, human liver microsomes was found to be 89.6 mL/min/kg and the intrinsic clearance, rat liver microsomes is 1030 mL/min/kg.

As to `Cc1cc(C(=O)NC2CCN(c3nc(-c4cccs4)nc4ccccc34)CC2)on1`, the MDR1-MDCK efflux ratio turned out to be 0.753 and the aqueous solubility was determined as 0.96 µg/mL (≈ 2.29 µM).

With `CC(=O)N1c2ccc(S(=O)(=O)Nc3cccc(-c4cnco4)c3)cc2CC1C` (stereo unspecified), the MDR1-MDCK efflux ratio is 11.5; the intrinsic clearance, human liver microsomes was determined as 67.6 mL/min/kg; the intrinsic clearance, rat liver microsomes stood at 274 mL/min/kg.

On to `COCCOc1ccc(N2CCN(CCn3ncc4c3nc(N)n3nc(-c5ccco5)nc43)CC2)cc1`, for which the aqueous solubility came out at 0.9 µg/mL (≈ 1.79 µM).

In the case of `Nc1nc(-c2ccccc2)c(C(=O)Nc2ccc(Cl)c(Cl)c2)s1`, the MDR1-MDCK efflux ratio turned out to be 0.643 and the aqueous solubility amounted to 0.5 µg/mL (≈ 1.37 µM).

As to `Cc1ccc(F)cc1S(=O)(=O)Nc1ccc(C(=O)N2CCCC2)cc1`, the MDR1-MDCK efflux ratio amounted to 22.3; the intrinsic clearance, human liver microsomes turned out to be 127 mL/min/kg; the intrinsic clearance, rat liver microsomes was determined as 6150 mL/min/kg.

`CCc1c(N)cnn1-c1ccccc1C`: the MDR1-MDCK efflux ratio was 0.677; the intrinsic clearance, human liver microsomes came to 8.11 mL/min/kg; the intrinsic clearance, rat liver microsomes turned out to be 165 mL/min/kg; the aqueous solubility came out at 37.1 µg/mL (≈ 185 µM).

`COc1ccc(/C=C/C(=O)c2c(C)nc3ccccc3c2N)c(OC)c1` displayed an intrinsic clearance, human liver microsomes of 43.4 mL/min/kg; an intrinsic clearance, rat liver microsomes of 814 mL/min/kg; an aqueous solubility of 40.6 µg/mL (≈ 117 µM).

Consider `C[C@@]12CCCN1C(=O)[C@H](C1CCCCC1)NC2=O`, for which the MDR1-MDCK efflux ratio is 2.65; the intrinsic clearance, human liver microsomes was at most 4.74 mL/min/kg; the intrinsic clearance, rat liver microsomes is 20.8 mL/min/kg.

Turning to `O=c1c2oc3ccccc3c2ncn1Cc1ccc(F)c(F)c1`, the MDR1-MDCK efflux ratio worked out at 0.537; the intrinsic clearance, human liver microsomes is 81.2 mL/min/kg; the intrinsic clearance, rat liver microsomes is 788 mL/min/kg.

Source of the values: the Biogen ADME set (Fang et al. 2023).
